According to patent US5252469A, “Process for producing a transglutaminase derived from streptomyces” (Amano Pharmaceutical Co., Ltd., priority 1990, dated 1993):
Like-named read-outs stand apart in the source and are kept apart here. Peptide text beside a SMILES is read from it. * marks the point of attachment. Cbz = O=C(OCc1ccccc1)*

Columns and labels:
Assay type in all cases: biochemical
[1] = system: Enzyme No. 83 (transglutaminase of Streptomyces sp No. 83)
Method: (§1) Measurement of the activity of BTGase is carried out by performing a reaction using benzyloxycarbonyl-L-glutaminyl glycine and hydroxylamine as substrates in the absence of Ca^2+, forming an iron complex with the resulting hydroxamic acid in the presence of trichloroacetic acid, measuring absorption at 525 nm and determining the amount of hydroxamic acid by a calibration curve to calculate the activity. The BTGase activity is measured by the method described below, unless otherwise indicated.
(§2) To 0.05 ml of an enzyme solution is added 0.5 ml of Reagent A and they are mixed with each other. After reacting at 37° C. for 10 minutes, Reagent B is added thereto to discontinue the reaction and form an Fe complex. Thereafter, absorbance is measured at 525 nm. […] Separately, a calibration curve is prepared using L-glutamic acid γ-monohydroxamic acid instead of the enzyme solution, and the amount of hydroxamic acid produced is determined by the difference in absorbance described above. An enzyme activity which produces 1 μmol of hydroxamic acid per 1 minute is defined as 1 unit.
(§3) Each inhibitor was added in a concentration of 1 mM.

[2] = system: Enzyme No. 466 (transglutaminase of Streptomyces lavendulae No. 466)
Method: as §1, §2, §3

[3] = system: Enzyme No. 83 (transglutaminase of Streptomyces sp No. 83); assay: Substrate specificity: reaction of synthetic substrates with hydroxylamine; settings: for Substrate specificity, Enzyme No. 83 (reactivity of substrate with hydroxylamine): Table 6, synthetic substrate 5 mM; for Substrate specificity, Enzyme No. 83 (reactivity of substrate with hydroxylamine) / Substrate specificity (%), Enzyme No. 83: CBZ-Gln-Gly = 100; for Substrate specificity (%), Enzyme No. 83: Table 9; for Reactivity of synthetic substrate with Enzyme No. 83 (in words): substrate 5 mM, text says BTGase (both enzymes)
Method: as §1
(§4) To 0.05 ml of an enzyme solution is added 0.5 ml of Reagent A and they are mixed with each other. After reacting at 37° C. for 10 minutes, Reagent B is added thereto to discontinue the reaction and form an Fe complex. Thereafter, absorbance is measured at 525 nm. As a control, absorbance is measured after reacting a previously thermally inactivated enzyme solution in a similar manner and a difference in absorbance between the control and the enzyme solution is measured. Separately, a calibration curve is prepared using L-glutamic acid γ-monohydroxamic acid instead of the enzyme solution, and the amount of hydroxamic acid produced is determined by the difference in absorbance described above. An enzyme activity which produces 1 μmol of hydroxamic acid per 1 minute is defined as 1 unit.
(§5) Using each BTGase, reactions of various synthetic substrates with hydroxylamine were examined. […] In this case, the concentration of various synthetic substrates is 5 mM. In the table, CBZ, Gln, Gly and Asn are abbreviations for benzyloxycarbonyl group, glutaminyl group, glycyl group and asparaginyl group, respectively.

[4] = system: Enzyme No. 466 (transglutaminase of Streptomyces lavendulae No. 466); assay: as above; settings: for Substrate specificity, Enzyme No. 466 (reactivity of substrate with hydroxylamine): Table 6, synthetic substrate 5 mM; for Substrate specificity, Enzyme No. 466 (reactivity of substrate with hydroxylamine) / Substrate specificity (%), Enzyme No. 466: CBZ-Gln-Gly = 100; for Substrate specificity (%), Enzyme No. 466: Table 9; for Reactivity of synthetic substrate with Enzyme No. 466 (in words): substrate 5 mM, text says BTGase (both enzymes)
Method: as §1, §4, §5

[5] = molecular target: T1, MTGase (transglutaminase of guinea pig liver) (UniProt P08587); assay: as above; settings: Table 9; CBZ-Gln-Gly = 100
T1 construct: The guinea pig liver-derived transglutaminase was prepared by the method described in Connellan et al; from tissue; host or cells: guinea pig liver
T1 sequence (P08587 2-690 limits assumed): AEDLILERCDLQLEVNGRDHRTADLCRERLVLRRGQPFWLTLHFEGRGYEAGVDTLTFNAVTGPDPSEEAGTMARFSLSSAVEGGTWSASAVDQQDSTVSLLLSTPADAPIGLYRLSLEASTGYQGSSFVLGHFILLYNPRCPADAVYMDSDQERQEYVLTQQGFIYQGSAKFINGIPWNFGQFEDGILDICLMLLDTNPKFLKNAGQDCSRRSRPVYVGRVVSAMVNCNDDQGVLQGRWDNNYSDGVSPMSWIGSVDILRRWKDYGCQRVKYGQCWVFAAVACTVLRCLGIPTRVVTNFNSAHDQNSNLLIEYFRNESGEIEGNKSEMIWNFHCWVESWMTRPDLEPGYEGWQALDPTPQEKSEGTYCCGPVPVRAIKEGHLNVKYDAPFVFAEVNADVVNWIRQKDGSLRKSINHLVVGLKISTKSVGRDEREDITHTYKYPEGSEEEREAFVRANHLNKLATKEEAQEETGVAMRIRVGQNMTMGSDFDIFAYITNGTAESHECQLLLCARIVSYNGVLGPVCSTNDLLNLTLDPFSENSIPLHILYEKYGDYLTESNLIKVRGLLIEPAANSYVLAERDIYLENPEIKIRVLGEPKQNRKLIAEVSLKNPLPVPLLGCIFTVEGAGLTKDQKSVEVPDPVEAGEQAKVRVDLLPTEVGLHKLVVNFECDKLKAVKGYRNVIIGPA
Method: as §1, §4, §5
Next, properties of BTGases are compared to those of guinea pig liver-derived transglutaminase. The guinea pig liver-derived transglutaminase was prepared by the method described in Connellan et al., Journal of Biological Chemistry, Vol. 246, No. 4, pp. 1093-1098 (1971). As will be apparent from Tables 9 and 10, various differences in enzymological properties are noted between transglutaminase of guinea pig liver (hereafter, referred to as MTGase) which has been mainly investigated heretofore and BTGases derived from the genus Streptomyces: in particular, differences are noted in temperature stability, molecular weight, isoelectric point and substrate specificity. Further, a difference is noted in that the BTGases of the present invention act in the presence and absence of Ca^2+. Therefore, the respective enzymes of the present invention are different from MTGase in their properties.

[6] = system: Enzyme No. 83 (transglutaminase of Streptomyces sp No. 83); assay: Influence of metal ions on transglutaminase activity; settings: for Activity of Enzyme No. 83 with metal ion (%): metal ion 1 mM in activity measurement system, None = 100, 10 min; for Effect of metal ion on activity of Enzyme No. 83 (in words): 1 mM, text says all BTGases
Method: as §1, §2

[7] = system: Enzyme No. 466 (transglutaminase of Streptomyces lavendulae No. 466); assay: as above; settings: for Activity of Enzyme No. 466 with metal ion (%): metal ion 1 mM in activity measurement system, None = 100, 10 min; for Effect of metal ion on activity of Enzyme No. 466 (in words): 1 mM, text says all BTGases
Method: as §1, §2

[8] = molecular target: T1, MTGase (transglutaminase of guinea pig liver); assay: Influence of Ca2+ on activity
Method: as §1, §4
Next, properties of BTGases are compared to those of guinea pig liver-derived transglutaminase. […]

[9] = 1 mM, 25° C. for 30 minutes, text says all BTGases
[10] = inhibitor 1 mM, 25° C. for 30 minutes, None = 100

| Structure (SMILES) | Substrate specificity, Enzyme No. 83 (reactivity of substrate with hydroxylamine) [3] | Substrate specificity (%), Enzyme No. 83 [3] | Substrate specificity, Enzyme No. 466 (reactivity of substrate with hydroxylamine) [4] | Substrate specificity (%), Enzyme No. 466 [4] | Substrate specificity (%), MTGase [5] | Activity of Enzyme No. 83 with metal ion (%) [6] | Activity of Enzyme No. 466 with metal ion (%) [7] | other results |
| --- | --- | --- | --- | --- | --- | --- | --- | --- |
| CCN1C(=O)C=CC1=O [NEM, N-ethylmaleimide] |  |  |  |  |  |  |  | Effect of inhibitor on activity of Enzyme No. 83 (in words) [1, 9]: inhibited; Activity of Enzyme No. 83 with inhibitor [1, 10]: 10; Effect of inhibitor on activity of Enzyme No. 466 (in words) [2, 9]: inhibited; Activity of Enzyme No. 466 with inhibitor [2, 10]: 5 |
| NC(=O)CC[C@H](NC(=O)OCc1ccccc1)C(=O)NCC(=O)O [CBZ--Gln--Gly, benzyloxycarbonylglutaminyl glycine] (Cbz-Gln-Gly-OH) | 100 | 100% | 100 | 100% | 100% |  |  | Reactivity of synthetic substrate with Enzyme No. 83 (in words) [3]: highest; Reactivity of synthetic substrate with Enzyme No. 466 (in words) [4]: highest |
| O=S(=O)(F)Cc1ccccc1 [PMSF, phenylmethylsulfonyl fluoride] |  |  |  |  |  |  |  | Activity of Enzyme No. 83 with inhibitor [1, 10]: 101; Activity of Enzyme No. 466 with inhibitor [2, 10]: 103 |
| [Cl-].[Cl-].[Co+2] [CoCl2] |  |  |  |  |  | 100% | 98% |  |
| CCOC(=O)CNC(=O)[C@H](CCC(N)=O)NC(=O)OCc1ccccc1 [CBZ--Gln--Gly--OEt] (Cbz-Gln-Gly-OEt) | 61 | 61% | 65 | 65% | 122% |  |  |  |
| NCC(=O)N[C@@H](CCC(N)=O)C(=O)NCC(=O)O [Gly--Gln--Gly, glycylglutaminyl glycine] (H-Gly-Gln-Gly-OH) | 0 | 0% | 0 | 0% | 0% |  |  | Reactivity of synthetic substrate with Enzyme No. 83 (in words) [3]: No BTGase reacts; Reactivity of synthetic substrate with Enzyme No. 466 (in words) [4]: No BTGase reacts |
| [Cl-].[Cl-].[Zn+2] [ZnCl2] |  |  |  |  |  | 36% | 10% | Effect of metal ion on activity of Enzyme No. 83 (in words) [6]: inhibited; Effect of metal ion on activity of Enzyme No. 466 (in words) [7]: inhibited |
| NC(=O)CC[C@H](NC(=O)CNC(=O)OCc1ccccc1)C(=O)NCC(=O)NCC(=O)O [CBZ--Gly--Gln--Gly--Gly] (Cbz-GQGG-OH) | 10 | 10% | 18 | 18% | 126% |  |  |  |
| O=C(O)c1cc[c]([Hg][Cl])cc1 [PCMB, p-chloromercury benzoic acid] |  |  |  |  |  |  |  | Effect of inhibitor on activity of Enzyme No. 83 (in words) [1, 9]: inhibited; Activity of Enzyme No. 83 with inhibitor [1, 10]: 86; Effect of inhibitor on activity of Enzyme No. 466 (in words) [2, 9]: inhibited; Activity of Enzyme No. 466 with inhibitor [2, 10]: 28 |
| [Cl-].[K+] [KCl] |  |  |  |  |  | 104% |  |  |
| [Cl-].[Cl-].[Sr+2] [SrCl2] |  |  |  |  |  | 100% | 97% |  |
| NC(=O)CC[C@H](NC(=O)OCc1ccccc1)C(=O)N[C@@H](CCC(N)=O)C(=O)NCC(=O)O [CBZ--Gln--Gln--Gly] (Cbz-Gln-Gln-Gly-OH) | 49 | 49% | 35 | 35% | 288% |  |  |  |
| [Ca+2].[Cl-].[Cl-] [CaCl2] |  |  |  |  |  |  |  | Activity of MTGase (%) ([8]; 1 mM CaCl2): 39%; Activity of MTGase (%) ([8]; 5 mM CaCl2): 100% |
| [Cl][Pb][Cl] [PbCl2] |  |  |  |  |  | 59% | 32% | Effect of metal ion on activity of Enzyme No. 83 (in words) [6]: inhibited; Effect of metal ion on activity of Enzyme No. 466 (in words) [7]: inhibited |
| [Ba+2].[Cl-].[Cl-] [BaCl2] |  |  |  |  |  | 100% | 100% |  |
| O=C(O)CI [Monoiodoacetic acid, monoiodoacetic acid] |  |  |  |  |  |  |  | Activity of Enzyme No. 83 with inhibitor [1]: 92; Effect of inhibitor on activity of Enzyme No. 83 (in words) [1]: inhibited; Activity of Enzyme No. 466 with inhibitor [2]: 87; Effect of inhibitor on activity of Enzyme No. 466 (in words) [2]: inhibited |
| O=C(O)CN(CCN(CC(=O)O)CC(=O)O)CC(=O)O [EDTA] |  |  |  |  |  |  |  | Activity of Enzyme No. 83 with inhibitor [1]: 103; Activity of Enzyme No. 466 with inhibitor [2]: 108 |
| [Cl][Cu][Cl] [CuCl2] |  |  |  |  |  | 89% | 90% | Effect of metal ion on activity of Enzyme No. 83 (in words) [6]: inhibited; Effect of metal ion on activity of Enzyme No. 466 (in words) [7]: inhibited |
| [Cl][Fe]([Cl])[Cl] [FeCl3] |  |  |  |  |  | 93% | 97% |  |
| NC(=O)CC[C@H](NC(=O)OCc1ccccc1)C(=O)O [CBZ--Gln, benzyloxycarbonyl glutamine] | 0 | 0% | 0 | 0% | 0% |  |  | Reactivity of synthetic substrate with Enzyme No. 83 (in words) [3]: No BTGase reacts; Reactivity of synthetic substrate with Enzyme No. 466 (in words) [4]: No BTGase reacts |
| NC(=O)C[C@H](NC(=O)OCc1ccccc1)C(=O)NCC(=O)O [CBZ--Asn--Gly, benzyloxycarbonylasparaginyl glycine] (Cbz-Asn-Gly-OH) | 0 | 0% | 0 | 0% | 0% |  |  | Reactivity of synthetic substrate with Enzyme No. 83 (in words) [3]: No BTGase reacts; Reactivity of synthetic substrate with Enzyme No. 466 (in words) [4]: No BTGase reacts |
| [Cl-].[Na+] [NaCl] |  |  |  |  |  | 102% | 98% |  |
